Laboratory results published in patent US9624200B2, “Therapeutic piperazines” (DART NEUROSCIENCE (CAYMAN) LTD., priority 2006, dated 2017).

tested on: PDE4 from human U-937 cells; assay: PDE4 Inhibition Assay; assay type: biochemical; conditions: 1 μM cAMP, [3H]-cAMP, read-out: Potency Class (Inhibitory Concentration) in the PDE4 assay
Protocol: PDE4 from human U-937 cells was used (see T. J. Torphy, et al., J. Pharmacol. Exp. Ther., 1992, 263, 1195-1205). Test compound at various concentration and/or vehicle was preincubated with 2 μg/ml enzyme in Tris-HCl buffer pH 7.5 for 15 minutes at 25° C. The reaction was initiated by addition of 1 1 μM cAMP and 0.01 1 μM [^3H]-cAMP for another 20 minute incubation period and terminated at 100° C. The resulting [^3H]-AMP was converted to [^3H]-adenosine by addition of snake venom nucleotidase and separated by AG1-X2 resin. An aliquot was removed and counted to determine the amount of [^3H]-adenosine formed. Results were converted to percent inhibition and IC so determined using XLfit from IDBS (ID Business Solutions Ltd., 2 Occam Court, Surrey Research Park, Guildford, Surrey, GU2 7QB UK).
Representative compounds of the present invention were tested and found to have significant PDE4 inhibition in this assay.

| IC50 [µM] | SMILES |
| --- | --- |
| 0.2 to 1 | COc1ccc(N2CCN(C(=O)C(C)(C)O)[C@@H](Cc3ccccc3)C2)cc1OC1CCCC1 [Compound 282, (S)-1-(2-benzyl-4-(3-(cyclopentyloxy)-4-methoxyphenyl)piperazin-1-yl)-2-hydroxy-2-methylpropan-1-one] |
| 0.2 to 1 | COc1ccc(N2CCN(C(=O)C3(O)CCC3)[C@@H](Cc3ccccc3)C2)cc1OC1CCCC1 [Compound 297, (S)-(2-benzyl-4-(3-(cyclopentyloxy)-4-methoxyphenyl)piperazin-1-yl)(1-hydroxycyclobutyl)methanone] |
| > 1 | COc1ccc(N2CCN(C(=O)CN3CC[C@@H](O)C3)[C@@H](Cc3ccccc3)C2)cc1OC1CCCC1 [Compound 320, 1-((S)-2-benzyl-4-(3-(cyclopentyloxy)-4-methoxyphenyl)piperazin-1-yl)-2-((R)-3-hydroxypyrrolidin-1-yl)ethanone] |
| 0.2 to 1 | COc1ccc(N2CCN(C(=O)Cc3c[nH]cn3)[C@@H](CC(C)C)C2)cc1OC(C)C [Compound 378, (S)-2-(1H-imidazol-4-yl)-1-(2-isobutyl-4-(3-isopropoxy-4-methoxyphenyl)piperazin-1-yl)ethanone] |
| < 0.2 | COc1ccc(N2CCN(C(C)=O)[C@@H](CN3CCc4ccccc4C3)C2)cc1OC1CCCC1 [Compound 253, (S)-1-(4-(3-(cyclopentyloxy)-4-methoxyphenyl)-2-((3,4-dihydroisoquinolin-2(1H)-yl)methyl)piperazin-1-yl)ethanone] |
| < 0.2 | Cc1nc(CC(=O)N2CCN(c3ccc(OC(F)F)c(OCC4CC4)c3)C[C@@H]2CC(C)C)n[nH]1 [Compound 373, (S)-1-(4-(3-(cyclopropylmethoxy)-4-(difluoromethoxy)phenyl)-2-isobutylpiperazin-1-yl)-2-(5-methyl-1-H-1,2,4-triazol-3-yl)ethanone] |
| < 0.2 | CCOc1ccc(N2CCN(C(=O)Cc3n[nH]c(C)n3)[C@@H](Cn3cccn3)C2)cc1OC1CCCC1 [Compound 257] |
| > 1 | COc1ccc(N2CCN(C(=O)Cc3ccncc3)[C@@H](Cc3ccccc3)C2)cc1OC1CCCC1 [Compound 386, (S)-1-(2-benzyl-4-(3-(cyclopentyloxy)-4-methoxyphenyl)piperazin-1-yl)-2-(pyridin-4-yl)ethanone] |
| < 0.2 | COc1ccc(N2CCN(C(=O)Cc3cc[nH]c3)[C@@H](Cc3ccccc3)C2)cc1OC(C)C [Compound 328, (S)-1-(2-benzyl-4-(3-isopropoxy-4-methoxyphenyl)piperazin-1-yl)-2-(1H-pyrrol-3-yl)ethanone] |
| > 1 | COc1ccc(N2CCN(C(=O)[C@H]3C[C@@H](O)CN3)[C@@H](Cc3ccccc3)C2)cc1OC1CCCC1 [Compound 279, ((S)-2-benzyl-4-(3-(cyclopentyloxy)-4-methoxyphenyl)piperazin-1-yl)((2R,4R)-4-hydroxypyrrolidin-2-yl)methanone] |
| < 0.2 | COc1ccc(N2CCN(C(=O)Cc3cnc[nH]3)[C@@H](Cc3ccccc3)C2)cc1OC(C)C [Compound 327, (S)-1-(2-benzyl-4-(3-isopropoxy-4-methoxyphenyl)piperazin-1-yl)-2-(1H-imidazol-5-yl)ethanone] |
| > 1 | CCOC(=O)CC(=O)N1CCN(c2ccc(OC)c(OC3CCCC3)c2)C[C@@H]1CC(C)C [Compound 368, (S)-ethyl 3-(4-(3-(cyclopentyloxy)-4-methoxyphenyl)-2-isobutylpiperazin-1-yl)-3-oxopropanoate] |
| 0.2 to 1 | COc1ccc(N2CCN(C(=O)Cc3cnccn3)[C@@H](Cc3ccccc3)C2)cc1OC1CCCC1 [Compound 387, (S)-1-(2-benzyl-4-(3-(cyclopentyloxy)-4-methoxyphenyl)piperazin-1-yl)-2-(pyrazin-2-yl)ethanone] |
| > 1 | CCc1nn(C2CCC2)c2cc(N3CCN(C(=O)CN)[C@@H](Cc4ccccc4)C3)ccc12 [Compound 351, (S)-2-amino-1-(2-benzyl-4-(1-cyclobutyl-3-ethyl-1H-indazol-6-yl)piperazin-1-yl)ethanone] |
| > 1 | COc1ccc(N2CCN(CCc3cnc[nH]3)[C@@H](Cc3ccccc3)C2)cc1OC1CCCC1 [Compound 242, (S)-1-(2-(1H-imidazol-5-yl)ethyl)-2-benzyl-4-(3-(cyclopentyloxy)-4-methoxyphenyl)piperazine] |
| < 0.2 | CCc1nn(C2CCC2)c2cc(N3CCN(C(=O)CC(N)=O)[C@@H](Cc4ccccc4)C3)ccc12 [Compound 264, (S)-3-(2-benzyl-4-(1-cyclobutyl-3-ethyl-1H-indazol-6-yl)piperazin-1-yl)-3-oxopropanamide] |
| 0.2 to 1 | COc1ccc(N2CCN(CCC(N)=O)[C@@H](Cc3ccccc3)C2)cc1OC(C)C [Compound 272, (S)-3-(2-benzyl-4-(3-isopropoxy-4-methoxyphenyl)piperazin-1-yl)propanamide] |
| 0.2 to 1 | COc1ccc(N2CCN(C(=O)Cc3ccc[nH]3)[C@@H](Cc3ccccc3)C2)cc1OC1CCCC1 [Compound 306, (S)-1-(2-benzyl-4-(3-(cyclopentyloxy)-4-methoxyphenyl)piperazin-1-yl)-2-(1H-pyrrol-2-yl)ethanone] |
| 0.2 to 1 | COc1ccc(N2CCN(C(=O)c3c[nH]cn3)[C@@H](Cc3ccccc3)C2)cc1OC1CCCC1 [Compound 241, (S)-(2-benzyl-4-(3-(cyclopentyloxy)-4-methoxyphenyl)piperazin-1-yl)(1H-imidazol-4-yl)methanone] |
| > 1 | COc1ccc(N2CCN(Cc3ccc(O)cc3)[C@@H](Cc3ccccc3)C2)cc1OC1CCCC1 [Compound 362, (S)-4-((2-benzyl-4-(3-(cyclopentyloxy)-4-methoxyphenyl)piperazin-1-yl)methyl)phenol] |
| > 1 | COc1ccc(N2CCN(C(=O)c3ccc(CO)cc3)[C@@H](Cc3ccccc3)C2)cc1OC1CCCC1 [Compound 360, (S)-(2-benzyl-4-(3-(cyclopentyloxy)-4-methoxyphenyl)piperazin-1-yl)(4-(hydroxymethyl)phenyl)methanone] |
| < 0.2 | COc1ccc(N2CCN(C(=O)Cc3ccccn3)[C@@H](Cc3ccccc3)C2)cc1OC1CCCC1 [Compound 384, (S)-1-(2-benzyl-4-(3-(cyclopentyloxy)-4-methoxyphenyl)piperazin-1-yl)-2-(pyridin-2-yl)ethanone] |
| < 0.2 | Cc1n[nH]c(CC(=O)N2CCN(c3ccc(OC(F)F)c(OC(F)F)c3)C[C@@H]2Cc2ccccc2)n1 [Compound 332, (S)-1-(2-benzyl-4-(3,4-bis(difluoromethoxy)phenyl)piperazin-1-yl)-2-(3-methyl-1H-1,2,4-triazol-5-yl)ethanone] |
| < 0.2 | COc1ccc(N2CCN(C(=O)Cc3cnc[nH]3)[C@@H](Cc3ccccc3)C2)cc1OC1CCCC1 [Compound 240, (S)-1-(2-benzyl-4-(3-(cyclopentyloxy)-4-methoxyphenyl)piperazin-1-yl)-2-(1H-imidazol-5-yl)ethanone] |
| 0.2 to 1 | CCC(=O)N1CCN(c2ccc(OC)c(OC3CCCC3)c2)C[C@@H]1Cc1ccccc1 [Compound 244, (S)-1-(2-benzyl-4-(3-(cyclopentyloxy)-4-methoxyphenyl)piperazin-1-yl)propan-1-one] |
| < 0.2 | COc1ccc(N2CCN(C(=O)Cc3cc(C)[nH]n3)[C@@H](Cc3ccccc3)C2)cc1OC1CCCC1 [Compound 305, (S)-1-(2-benzyl-4-(3-(cyclopentyloxy)-4-methoxyphenyl)piperazin-1-yl)-2-(5-methyl-1H-pyrazol-3-yl)ethanone] |
| < 0.2 | COc1ccc(N2CCN(C(=O)Cc3n[nH]c([N+](=O)[O-])n3)[C@@H](Cc3ccccc3)C2)cc1OC1CCCC1 [Compound 325, (S)-1-(2-benzyl-4-(3-(cyclopentyloxy)-4-methoxyphenyl)piperazin-1-yl)-2-(5-nitro-1H-1,2,4-triazol-3-yl)ethanone] |

| SMILES | IC50 [µM] |
| --- | --- |
| O=C(Cc1ncccn1)N1CCN(c2ccc(OC(F)F)c(OC3CCC3)c2)C[C@@H]1Cc1ccccc1 [Compound 356, (S)-1-(2-benzyl-4-(3-cyclobutoxy-4-(difluoromethoxy)phenyl)piperazin-1-yl)-2-(pyrimidin-2-yl)ethanone] | 0.2 to 1 |
| COc1ccc(N2CCN(C(=O)CN)[C@@H](Cc3ccccc3)C2)cc1OC1CCC1 [Compound 349, (S)-2-amino-1-(2-benzyl-4-(3-cyclobutoxy-4-methoxyphenyl)piperazin-1-yl)ethanone] | > 1 |
| COc1ccc(N2CCN(C(=O)Cc3ncccn3)[C@@H](Cc3ccccc3)C2)cc1OC1CCC1 [Compound 340, (S)-1-(2-benzyl-4-(3-cyclobutoxy-4-methoxyphenyl)piperazin-1-yl)-2-(pyrimidin-2-yl)ethanone] | < 0.2 |
| COc1ccc(N2CCN(C(=O)CCN)[C@@H](Cc3ccccc3)C2)cc1OC1CCC1 [Compound 274, (S)-3-amino-1-(2-benzyl-4-(3-cyclobutoxy-4-methoxyphenyl)piperazin-1-yl)propan-1-one] | > 1 |
| CNCCC(=O)N1CCN(c2ccc(OC)c(OC3CCC3)c2)C[C@@H]1Cc1ccccc1 [Compound 348, (S)-1-(2-benzyl-4-(3-cyclobutoxy-4-methoxyphenyl)piperazin-1-yl)-3-(methylamino)propan-1-one] | > 1 |
| COc1ccc(N2CCN(C(=O)Cc3nn[nH]n3)[C@@H](Cc3ccccc3)C2)cc1OC1CCC1 [Compound 335, (S)-1-(2-benzyl-4-(3-cyclobutoxy-4-methoxyphenyl)piperazin-1-yl)-2-(2H-tetrazol-5-yl)ethanone] | < 0.2 |
